# Data reported in patent US20130269058A1, “PLANTS RESISTANT TO FUNGAL PATHOGENS AND METHODS FOR PRODUCTION THEREOF” (GENOPLANTE-VALOR, priority 2010, published 2013).
# Key:
# WAK91 gene expression = assay: Chitin sprayed on healthy rice plants; WAK91 expression by QRT-PCR normalized by actin; format: in vivo, rice (Oryza sativa L., cultivar Nipponbare)
# Method: (§1) FIG. 2: Chitin induces WAK91 expression. Chitin fragments (two concentrations) were sprayed on healthy rice plants. Chitin alone is sufficient to induce WAK91 (up to 4×) in entire plants after 15 minutes. The PR5 and PDX223 classical defense genes are induced later. (A) The expression value of the WAK91, PR5 and PDX223 gene expression (normalized by actin) was measured at the indicated time after treatment. (B) The expression value after chitin treatment was divided by the expression value in untreated plants and the ratio was log transformed.
# (§2) Gene expression was performed using Quantitative RT-PCR as described in Vergne et al (2007). For RT-QPCR applications, frozen tissue were ground in liquid nitrogen. Approximately 500 μl of powder was then treated with 1 ml of TRIZOL supplied by Invitrogen, vortexed for 30 s and incubated at room temperature for 15 minutes. […] Two microlitres of cDNA (dilution 1/10) were then used for quantitative RT-PCR. Quantitative RT-PCR mixtures contained PCR buffer, dNTP (0.25 mM), MgCl2 (2.5 mM), forward and reverse primers ([…]), 1 U of HotGoldStar polymerase and SYBR Green PCR mix as per the manufacturer's recommendations (Eurogentec, Seraing, Belgium). […] The quantitative RT-PCR (QRT-PCR) reactions were performed using a MX3000P machine (Stratagene) and data were extracted using the MX3000P software. […]
# [1] = system: PR5 and PDX223 classical defense genes; assay: Chitin sprayed on healthy rice plants; defense gene expression by QRT-PCR normalized by actin; format: in vivo, rice (Oryza sativa L., cultivar Nipponbare); settings: chitin fragments sprayed on healthy rice plants; timing relative to WAK91 induction
# Method: as §1, §2
substance,measurement,setting,value
chitin,induction of WAK91 expression,"WAK91 gene expression; chitin fragments (two concentrations) sprayed on healthy rice plants, entire plants, after 15 minutes, versus untreated plants",up to 4 ×
same,WAK91 induction (in words),"WAK91 gene expression; chitin used as described in Miya et al (2007), FIG. 2",sufficient to cause WAK91 induction
same,induction of PR5 and PDX223 defense genes (in words),[1],induced later
